Source: US20210147482A1, “PEPTIDE FOR INHIBITING BONE RESORPTION” (NIBEC CO., LTD., priority 2017, published 2021)

Experiments:
[1] = tested on: mouse-bone-marrow-derived macrophages; assay: Osteoclast differentiation by TRAP staining; format: cell-based; conditions: 100 ng/ml RANKL + 0.2, 2, or 20 μg/ml HBD3-C15, 3 days
Procedure: In order to evaluate the effect of HBD3-C15, a peptide fragment derived from human beta-defensin-3 (HBD3) on the differentiation of osteoclasts, which are bone destruction cells, mouse-bone-marrow-derived macrophages were used. The bone marrow-derived macrophages that were used were prepared by isolating bone marrow cells from the long bone of mice and culturing the same at 100% humidity and 37° C. in an alpha MEM containing 10% fetal bovine serum, 50 unit/ml of penicillin and 50 μg/ml of streptomycin along with 20 ng/ml of M-CSF for 5 days, while continuously feeding 5% carbon dioxide.
Mouse-bone-marrow-derived macrophages were seeded at 20,000 cells/well on a 96-well plate, treated with 100 ng/ml of receptor activator of nuclear factor-kappaB ligand (RANKL) alone, or a combination of 100 ng/ml of RANKL and 0.2, 2, or 20 μg/ml of HBD3-C15, and cultured for 3 days. In order to determine the degree of differentiation of osteoclasts, tartrate-resistant acid phosphatase (TRAP) staining was performed, and cells with three or more nuclei having osteoclast activity were counted and statistically analyzed.

c-Fos [2] = assay: c-Fos RNA expression by RT-PCR; format: cell-based, mouse; conditions: 20 ng/ml M-CSF, 100 ng/ml RANKL, 20 μg/ml HBD3-C15, 24 hours; FIG. 1D
Procedure: (§1) In addition, expression of c-fos and NFATc1, which are well-known key transcription factors for osteoclast differentiation, was determined at protein and RNA levels.
(§2) Mouse-bone-marrow-derived macrophages were treated with 20 ng/ml of M-CSF and 100 ng/ml of RANKL, or 20 ng/ml of M-CSF, 100 ng/ml of RANKL and 20 μg/ml of HBD3-C15 for 24 hours, RNA was extracted, and the quantified RNA and random primers were reacted at 70° C. for 5 minutes and reacted in the presence of a reverse transcriptase, reverse transcription buffer and dNTPs at 42° C. for 1 hour. The result was amplified by 35 cycles using the synthesized cDNA as a template and using c-Fos and NFATc1-specific oligos as primers in a polymerase chain reaction machine.

NFATc1 [3] = assay: NFATc1 RNA expression by RT-PCR; format: cell-based, mouse; conditions: 20 ng/ml M-CSF, 100 ng/ml RANKL, 20 μg/ml HBD3-C15, 24 hours; FIG. 1D
Procedure: as §1, §2

mature osteoclasts = assay: Destruction of podosome belt of differentiated mature osteoclasts; format: cell-based, mouse; conditions: 20 μg/ml HBD3-C15 added on day 4 of differentiation, cultured 1 day; FIG. 4
Procedure: Thus, in order to determine whether or not HBD3-C15 can inhibit the activity of differentiated mature osteoclasts, mouse-bone-marrow-derived macrophages were treated with 20 ng/ml of M-CSF and 100 ng/ml of RANKL on a cover glass for 4 days to induce differentiation of osteoclasts. The osteoclasts were treated with 20 μg/ml of HBD3-C15 on day 4 of differentiation and cultured for 1 day. The cells were fixed with 4% paraformaldehyde, stained with Alexa-Fluor-488-conjugated phalloidin, washed and nuclei-stained with Hoechst 33258. The degree of staining of cells was observed by confocal microscopy.

[4] = tested on: osteoclasts cultured from mouse-bone-marrow-derived macrophages on dentin discs; assay: Bone resorption activity of osteoclasts on dentin discs; format: cell-based; conditions: 20 ng/ml M-CSF, 100 ng/ml RANKL, 20 μg/ml HBD3-C15, 6 days, FIG. 2
Procedure: The osteoclasts were cultured in mouse-bone-marrow-derived macrophages on dentin discs based on the fact that osteoclasts perform all functions thereof in environments enabling bone absorption. Mouse-bone-marrow-derived macrophages were treated with 20 ng/ml of M-CSF and 100 ng/ml of RANKL, or with 20 ng/ml of M-CSF, 100 ng/ml of RANKL and 20 μg/ml of HBD3-C15, and then cultured for 6 days. The bone resorption area and bone resorption depth were imaged by confocal microscopy and total bone resorption depth and bone resorption area were measured by LSM Image Browser software.

mouse skulls [5] = assay: Calvarial implantation model, bone resorption by RANKL; format: in vivo; conditions: 20 μg RANKL and 200 μg HBD3-C15 in collagen sheet, day 7
Procedure: In order to determine the inhibition of bone destruction by HBD3-C15 in vivo, a calvarial implantation model, a typical bone loss model, was used.
20 μg of RANKL, a key cytokine that can destroy bones, was soaked in a collagen sheet and was transplanted alone into mouse skulls, or 20 μg of RANKL and 200 μg of HBD3-C15 were soaked in a collagen sheet and then transplanted into mouse skulls. The mice were sacrificed on day 7 of transplantation, and the degree of skull bone destruction was analyzed by scanning via micro-CT.
After micro-CT analysis, TRAP staining was performed to determine the number of osteoclasts in the skull.

c-Fos [6] = assay: c-Fos protein expression by immunoblotting; format: cell-based, mouse; conditions: treated with HBD3-C15 for 48 hours; FIG. 1D
Procedure: (§3) In addition, in order to determine changes of the protein expression of c-Fos and NFATc1, the proteins were extracted from mouse-bone-marrow-derived macrophages, treated with HBD3-C15 for 48 hours, and 40 μg of the protein was transferred to the PVDF membrane through an SDS-PAGE gel. Then, immunoblotting was performed using c-Fos and NFATc1-specific antibodies.

[7] = tested on: osteoclasts from mouse-derived bone marrow macrophages; assay: Podosome belt formation in osteoclasts (confocal microscopy); format: cell-based; conditions: 20 ng/ml M-CSF, 100 ng/ml RANKL, 20 μg/ml HBD3-C15, 5 days; FIG. 3
Procedure: Thus, in order to determine whether or not the reduction of osteoclast differentiation by HBD3-C15 is affected by podosome belt formation in osteoclasts, mouse-derived bone marrow macrophages were differentiated on a cover glass. Mouse-bone-marrow-derived macrophages were treated with 20 ng/ml of M-CSF and 100 ng/ml of RANKL, or 20 ng/ml of M-CSF, 100 ng/ml of RANKL and 20 μg/ml of HBD3-C15, and cultured for 5 days. The cells were fixed with 4% paraformaldehyde, stained with Alexa-Fluor-488-conjugated-phalloidin, and washed and stained with Hoechst 33258. The degree of staining of cells was observed by confocal microscopy.

NFATc1 [8] = assay: NFATc1 protein expression by immunoblotting; format: cell-based, mouse; conditions: treated with HBD3-C15 for 48 hours; FIG. 1D
Procedure: as §3

mouse skulls [9] = assay: Mouse skull resorption induced by A.a.LPS; format: in vivo; conditions: transplantation of HBD3-C15; FIG. 6
Procedure: In addition, lipopolysaccharide of Aggregatibacter actinomycetemcomitans (A.a.LPS), a bacterium known to cause aggressive periodontitis accompanied with rapid alveolar bone loss, induced resorption of mouse skulls, and whether such resorption can be inhibited by HBD3-C15 was determined

[10] = tested on: osteoblast cell line MC3T3-E1 (Subclone 4); assay: Osteoblast differentiation by alkaline phosphate staining; format: cell-based; conditions: differentiation medium (50 μg/ml ascorbic acid, 10 mM β-glycerophosphate) + 20 μg/ml HBD3-C15, 6 days; FIG. 7
Procedure: In order to evaluate the effect of HBD3-C15 on differentiation of osteoblasts, which are bone formation cells, the osteoblast cell line MC3T3-E1 (Subclone 4) was used. The cells were prepared by culturing in alpha-MEM medium without ascorbic acid containing 10% fetal bovine serum, 50 unit/ml of penicillin, and 50 μg/ml of streptomycin at 37° C. and 100% humidity while continuously supplying 5% carbon dioxide.
MC3T3-E1 cells were seeded at a density of 25,000 cells/well into a 48-well plate, then treated with a differentiation medium alone supplemented with 50 μg/ml of ascorbic acid and 10 mM of β-glycerophosphate, or in combination with 20 μg/ml of HBD3-C15, and cultured for 6 days. Alkaline phosphate staining was performed to determine the differentiation of osteoblasts and images were obtained through a camera mounted on a microscope.

## G-K-C-S-T-R-G-R-K-C-C-R-R-K-K [HBD3-C15]
[1]; FIG. 1A
  number of TRAP positive cells increased due to RANKL: decreased in a concentration-dependent manner
[1]; FIG. 1B
  number of cells with three or more nuclei having osteoclast activity: statistically significantly decreased
[1]; FIG. 1C
  number of cells having ten or more nuclei: significantly decreased
c-Fos [2]
  expression of c-Fos (RNA) increased by RANKL: reduced
NFATc1 [3]
  expression of NFATc1 (RNA) increased by RANKL: reduced
Mature osteoclasts
  podosome belt of differentiated mature osteoclasts: incomplete podosome belt
[4]
  increase in bone resorption area attributable to RANKL: significantly reduced
  increase in bone resorption depth attributable to RANKL: significantly reduced
Mouse skulls [5]; FIG. 5C
  number of osteoclasts in the skull (TRAP staining): significantly reduced
Mouse skulls [5]; FIGS. 5A and 5B
  skull absorbed by RANKL (micro-CT): significantly reduced
c-Fos [6]
  c-Fos protein expression attributable to RANKL: inhibited an increase
[7]
  podosome belt formation by RANKL: no clear podosome belt
NFATc1 [8]
  NFATc1 protein expression attributable to RANKL: inhibited an increase
Mouse skulls [9]
  number of osteoclasts (A.a.LPS model): decreased
  skull resorption by A.a.LPS: significantly reduced
[10]
  degree of differentiation of osteoblasts: no difference in the degree of differentiation
